According to patent publication US20210163404A1, “NOVEL UREA COMPOUNDS AND BIOISOSTERES THEREOF AND THEIR USE FOR TREATING INFLAMMATION AND INFLAMMATION-RELATED PATHOLOGIES” (UNIVERSITÉ LAVAL, priority 2017, published 2021):
Where “and” joins values, the source holds several entries; their conditions need not be identical. Identical values can stand only once. Like-named read-outs stand apart in the source and are kept apart here.

Key:
IL-6 [1] = assay: IL-6 expression in HaCaT cells stimulated with IL-17A and TNFα (ELISA); format: cell-based, human; details: for Expression of IL-6, HaCaT: 10 μM solutions, HaCaT stimulated with IL-17A and TNFα, mean of five experiments in duplicate; for inhibitory effect on IL-6 expression in HaCaT cells: 10 μM, stimulated with IL-17A and TNFα; for inhibitory effect on IL-6 expression in HaCaT cells / effect on the expression of IL-6 by HaCaT cells: in words; for effect on the expression of IL-6 by HaCaT cells: HaCaT cells treated with IL-17 and TNFα
From the text: The effect of compounds 3a-b, 4a-e, 5a-e and 6a-e on the expression of IL-6 was subsequently assessed using the HaCaT spontaneously transformed aneuploid immortal keratinocyte cell line, stimulated by the addition of IL-17A and TNFα in the culture medium (Table 1). Curcumin and ibuprofen were used as known IL-6 expression inhibitors. DMSO was used for solubilizing the drugs. […] Indeed, the inhibitory effect of these molecules was at least equivalent to that of curcumin [27] and ibuprofen, both recognized as anti-inflammatory drugs. The inhibitory effect of the substituted phenyl cycloalkylureas in accordance with an embodiment of the present disclosure on proinflammatory cytokines was also found at the mRNA level. Indeed, the mRNAs of the cytokines IL-6 and TNF-α as well as the mRNA of the chemokine IL-8 were lowered in TNF-α/IL-17A-stimulated HaCaT cells. Similar results were obtained in THP-1 cells stimulated with LPS where treatments with CHEU and 4e diminished the mRNA levels of the cytokines IL-1B, IL-6 and TNF-α in addition to the mRNA levels of the chemokine IL-8. It is surmised that the anti-inflammatory mechanism of action of the compounds of the present disclosure is likely mediated, at least in part, by modulating the phosphorylation state of the MAP kinase p38. […] Addition of a compound in accordance with an embodiment of the present disclosure, prior to stimulation with the aforementioned cytokines, decreases the level of p-p38 at 30-60 minutes post-stimulation. This diminution in p-p38 levels destabilizes the mRNAs of pro-inflammatory cytokines, non-limiting examples of which include TNF-α and IL-6. Moreover, it is surmised that the effect of the compounds of the present disclosure on p-p38 is potentially mediated by the activation of the phosphatase named DUSP1.
HaCaT cells (1×10^5) were suspended in DMEM culture media (500 μL) and incubated for 24 h in 24-well microtiter plates at 37° C. in a moisture-saturated atmosphere containing 5% CO2. Compounds were solubilized in DMSO and diluted in fresh DMEM. The compound (500 μL) was then added to the cell medium to obtain a final concentration of […] and the cells incubated over a period of 1 hour. In the meantime, IL-17α (200 ng/mL) and TNFα (20 ng/mL) (PeproTech, Rocky Hill, N.J.) were added to the drug solution in DMEM. Following the initial incubation of the cells, the culture medium was aspirated from each well and the IL-17α+ TNFα+ compound solution was added to each well for incubation (6 hours). The culture media was then removed and transferred to a clean tube (1.5 mL) at −80° C. until the ELISA test was performed. The presence of IL-6 in the cell media was determined using an IL-6 human Duoset ELISA kit (Fisher Scientific, Ottawa, On.) according to the manufacturer's instructions. Standards and samples were prepared and assessed in duplicate. Two separate replicates were performed for each sample. The absorbance was measured at 450 nm and 540 nm using a TECAN infinite M1000 plate reader.

HaCaT cells = assay: Cell cycle analysis by flow cytometry; format: cell-based, human; details: for Cell cycle progression G0-G1 / Cell cycle progression G2-M / Cell cycle progression S: 10 μM, 24 h; for effect on cell cycle progression: in words
Experimental: The effect of compounds 3a-b, 4e, 5b-c, 6a and 6e on cell cycle progression was subsequently assessed using a flow cytometer in accordance with established experimental protocols to evaluate any potential drug toxicity at specific phases of the cell cycle (Table 3).
HaCaT cells (2.5×10^5) were incubated with compounds 3a-b, 4e, 5b-c, 6a and 6e and curcumin (10 μM) over a period of 24 h. The cells were subsequently trypsinized, washed with PBS, resuspended in PBS (250 μL), fixed by the addition of ice-cold EtOH (750 μL) under agitation and stored at −20° C. until analysis. Prior to FACS analysis, cells were washed with PBS and resuspended in PBS (500 μL) containing 4′,6′-diamidino-2-phenylindole (DAPI) (2 μg/mL). The cell cycle was analyzed using an LSR II flow cytometer (BD Biosciences, Franklin Lakes, N.J.).

[2] = test system: HT-29 colon adenocarcinoma cells; assay: Antiproliferative activity (NCI procedure, sulforhodamine B), HT-29; format: cell-based, human; details: 48 h; for GI50: Table 2; for IC50: Table 6, unit inferred, tested 781 nM to 100 μM
Summary of the method: (§1)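 Cells seeded in DMEM, grown 24 h at 37 °C, then exposed 48 h to serial dilutions from 100 μM to 781 nM (DMSO <0.5%). TCA fixation, sulforhodamine B staining, absorbance at 530-568 nm; growth inhibition relative to plates fixed on treatment day. At least two experiments in triplicate.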

[3] = test system: HaCaT keratinocyte cell line; assay: Antiproliferative activity (NCI procedure, sulforhodamine B), HaCaT; format: cell-based, human; details: 48 h; for GI50: Table 2; for IC50: Table 6, unit inferred, tested 781 nM to 100 μM
Summary of the method: as §1

[4] = test system: A549 adenocarcinoma alveolar epithelial cancer cells; assay: Antiproliferative activity (NCI procedure, sulforhodamine B), A549; format: cell-based, human; details: 48 h; for GI50: Table 2; for IC50: Table 6, unit inferred, tested 781 nM to 100 μM
Summary of the method: as §1

[5] = test system: HDFn neonatal dermal fibroblast cell line; assay: Antiproliferative activity (NCI procedure, sulforhodamine B), HDFn; format: cell-based, human; details: 48 h; for GI50: Table 2; for IC50: Table 6, unit inferred, tested 781 nM to 100 μM
Summary of the method: as §1

cancer cell lines = details: background, refs [4, 5]; in words; cited from earlier work
IL-6 [6] = assay: IL-6 expression in HaCaT cells stimulated with IL-17A and TNFα (ELISA); format: cell-based; details: Homo sapiens, read-out: Reduction IL-6 (%)

Row | melting point | Compound | Expression of IL-6, HaCaT (IL-6 [1]) [pg/mL] | GI50 ([2]; Homo sapiens, HT-29) [µM] | IC50 ([2]; Homo sapiens, HT-29) [µM] | GI50 ([3]; Homo sapiens, HaCaT) [µM] | IC50 ([3]; Homo sapiens, HaCaT) [µM] | GI50 ([4]; Homo sapiens, A549) [µM] | IC50 ([4]; Homo sapiens, A549) [µM] | GI50 ([5]; Homo sapiens, Fibroblast) [µM] | IC50 ([5]; Homo sapiens, Fibroblast) [µM] | Cell cycle progression G0-G1 (HaCaT cells) | Cell cycle progression G2-M (HaCaT cells) | Cell cycle progression S (HaCaT cells) | effect on cell cycle progression (HaCaT cells) | other results
1 | 136 to 139 °C | CCNC(=O)Nc1ccc(C(C)(C)C)cc1 [Compound 63, 1-(4-(t-Butyl)phenyl)-3-ethylurea] | 81.9 ± 10.8 | 75 | 75 | > 100 | ≥ 100 | 69 | 69 | 60 | 60 | – | – | – | – | Cell cycle progression G0-G1 (HaCaT cells; listed as 3a): 44; Cell cycle progression G2-M (HaCaT cells; listed as 3a): 31; Cell cycle progression S (HaCaT cells; listed as 3a): 25.1
2 | 159 to 160 °C | O=C(NCC1CCC1)Nc1ccc(I)cc1 [Compound 23, 1-(Cyclobutylmethyl)-3-(4-iodophenyl)urea] | 33.9 ± 4.3 | 29 | 29 | 62 | 62 | 27 | 27 | 74 | 74 | 45 | 29.4 | 25.6 | – | inhibitory effect on IL-6 expression in HaCaT cells (IL-6 [1]): significant inhibitory effect
3 | 126 to 127 °C | CC(C)(C)c1cccc(NC(=O)NCC2CCC2)c1 [Compound 47, 1-(3-(t-Butyl)phenyl)-3-(cyclobutylmethyl)urea] | 47.5 ± 3.3 | 43 | 43 | 39 | 39 | 37 | 37 | 21 | 21 | 46.1 | 30.4 | 23.5 | – | inhibitory effect on IL-6 expression in HaCaT cells (IL-6 [1]): significant inhibitory effect
4 | 218 to 223 °C and 219 to 221 °C | CC(C)(C)c1ccc(NC(=O)NC2CCCC2)cc1 [Compound 31, 1-(4-(t-Butyl)phenyl)-3-cyclopentylurea] | 127.5 ± 17.3 | > 100 | ≥ 100 | > 100 | ≥ 100 | 83 | 83 | > 100 | ≥ 100 | 48 | 25.8 | 25.1 | did not affect the cell cycle progression | –

Second part, the molecule before the results:

Row | Compound | melting point | Expression of IL-6, HaCaT (IL-6 [1]) [pg/mL] | GI50 ([2]; Homo sapiens, HT-29) [µM] | IC50 ([2]; Homo sapiens, HT-29) [µM] | GI50 ([3]; Homo sapiens, HaCaT) [µM] | IC50 ([3]; Homo sapiens, HaCaT) [µM] | GI50 ([4]; Homo sapiens, A549) [µM] | IC50 ([4]; Homo sapiens, A549) [µM] | GI50 ([5]; Homo sapiens, Fibroblast) [µM] | IC50 ([5]; Homo sapiens, Fibroblast) [µM] | Cell cycle progression G0-G1 (HaCaT cells) | Cell cycle progression G2-M (HaCaT cells) | Cell cycle progression S (HaCaT cells) | effect on cell cycle progression (HaCaT cells) | other results
5 | CC(C)Cc1ccc(C(C)C(=O)O)cc1 (stereo not shown) [Ibuprofen, reference compound] | – | 120.3 ± 18.6 | > 100 | – | > 100 | – | > 100 | – | > 100 | – | 57.9 | 16.3 | 25.6 | – | –
6 | COc1cc(/C=C/C(=O)CC(=O)/C=C/c2ccc(O)c(OC)c2)ccc1O [Curcumin, reference compound] | – | 62.8 ± 12.0 | 4.2 | – | 7 | – | 9.9 | – | 7.6 | – | 14.8 | 77.1 | 8.1 | clearly arresting the cell cycle progression in the G2-M phase | –
7 | O=C(Nc1ccc(C2CCCCC2)cc1)NC1CCCC1 [Compound 58, 1-(4-Cyclohexylphenyl)-3-cyclopentylurea] | 197 to 199 °C | 50.3 ± 4.7 | 13 | 13 | 82 | 82 | 11 | 11 | 56 | 56 | 50.1 | 25.2 | 24.7 | did not affect the cell cycle progression | inhibitory effect on IL-6 expression in HaCaT cells (IL-6 [1]): significant inhibitory effect
8 | CC(C)(C)c1ccc(NC(=O)NCCCl)cc1 [tBCEU, reference compound] | – | 130.6 ± 15.6 | – | – | – | – | – | – | – | – | 57.3 | 15.6 | 26.8 | arresting the cell cycle progression in the G2-M phase | effect on the expression of IL-6 by HaCaT cells (IL-6 [1]): significant decrease; antiproliferative activity on numerous cancer cell lines (cancer cell lines): potent antiproliferative activity; GI50 [2]: 6.5 µM; GI50 [3]: 12 µM; GI50 [4]: 6.9 µM; GI50 [5]: 11 µM
9 | C[C@@H]1C[C@H]2[C@@H]3CCC4=CC(=O)C=C[C@]4(C)[C@@]3(F)[C@@H](O)C[C@]2(C)[C@@]1(O)C(=O)CO [Dexamethasone] | – | – | – | – | – | – | – | – | – | – | – | – | – | – | inhibition at 1 µM (IL-6 [6]; Table 6, HaCaT stimulated with IL-17A and TNFα): 45.3%; inhibition at 1 µM (IL-6 [6]; Table 8, HaCaT stimulated with IL-17A and TNFα): 54.5%
10 | O=C(NCCCl)Nc1ccc(C2CCCCC2)cc1 [cHCEU, 1-(2-chloroethyl)-3-(p-cyclohexylphenyl)urea, reference compound] | – | 46.8 ± 8.5 | 15 | – | 27 | – | 12 | – | 11 | – | 56.5 | 19.1 | 24.4 | – | effect on the expression of IL-6 by HaCaT cells (IL-6 [1]): significant decrease; antiproliferative activity on numerous cancer cell lines (cancer cell lines): potent antiproliferative activity
11 | O=C(Nc1cccc(I)c1)NC1CC1 [Compound 36, 1-Cyclopropyl-3-(3-iodophenyl)urea] | 153 to 154 °C | 57.3 ± 4.4 | > 100 | ≥ 100 | > 100 | ≥ 100 | 84 | 84 | 79 | 79 | – | – | – | – | –
12 | O=C(Nc1ccc(I)cc1)NC1CCCC1 [Compound 24, 1-Cyclopentyl-3-(4-iodophenyl)urea] | 188 to 191 °C | 65.1 ± 7.6 | 9.7 | 9.7 | > 100 | ≥ 100 | 62 | 62 | > 100 | ≥ 100 | – | – | – | – | –
